Measured values reported in patent US20100184819A1, “METHOD FOR REDUCING INTRACRANIAL PRESSURE” (priority 2007, published 2010).

Experiments:
aquaporin 4 (AQP-4) = test: Perivascular AQP-4 immunostaining (electron microscopy) after diffuse traumatic brain injury; type: in vivo; conditions: rat diffuse TBI, intravenous injection at 30 min after injury, 5 h after injury
Excerpt: We decided to study the water channels associated with the cerebral vasculature, and in particular aquaporin 4 (AQP-4), in order to see whether there were any changes in the expression of these channels. For these studies, a rat model was used, and raised ICP was induced by diffuse traumatic brain injury. In this model, a traumatic brain injury was induced using the impact-acceleration model. Briefly, the impact-acceleration device delivers an accelerating blow centrally on to the dorsal surface of the skull of halothane anesthetized male Sprague-Dawley rats (380-420 g). The point of impact was protected with a stainless steel disc to prevent skull fracture, while the head was subsequently decelerated using either a foam or gel filled cushion. For severe injury, the 450 g brass weight is dropped from a height of 2 metres. The impact results in extensive, diffuse neuropathological damage throughout the brain with associated neurological deficits. Immunohistochemical labelling was used to investigate the expression of aquaporin-4 (FIG. 1). Briefly, electron microscopy of AQP-4 used a rabbit polyclonal antibody (Alpha Diagnostic International, Inc., San Antonio) as the primary antibody, with immunolabelling completed using biotinylated secondary antibody (goat anti-rabbit IgG) and streptavidin-peroxidase complex (Rockland, Gilbertsville, Pa.). […]

[1] = tested on: sheep model of diffuse traumatic brain injury; test: Brain tissue oxygenation (PbtO2) in the sheep model of diffuse traumatic brain injury; type: in vivo
Excerpt: (§1) Briefly, 2-year-old male Merino sheep were impacted in the left temporal region by a humane stunner. Sheep were continuously anesthetized and ventilated using 2.5% isoflurane in oxygen (4 L/min). Animals were then placed into a prone sphinx position, and restrained to the table, leaving the neck and head mobile relative to the body. Impact injury was induced at the midpoint between the left supraorbital process and the left external auditory meatus using a Captive humane bolt stunner armed with a number 7 red charge (model KML, Karl Schermer & Co., Germany). The injury produced by this method has been fully characterised, and mimics that seen in human TBI victims. (Lewis, S. B., Finnie, J. W., Blumbergs, P. C., Scott, G., Manavis, J. Brown, C., Reilly, P. L., Jones, N. R., McLean, A. J. (1996) A head impact model of early axonal injury in the sheep. J Neurotrauma 13, 505-514.)
The injury was carried out in sheep as previously described. In addition to the burr hole for ICP monitoring, a second burr hole 1 cm lateral to the sagittal midline and over the left fronto-parietal suture allowed insertion of the distal end of a LICOX® PbtO2 probe to a depth of 2 cm. The probe was attached to a LICOX® brain tissue oxygen monitoring system (Integra, USA) for digital recording. After insertion of the probes, both burr holes were sealed using bone wax. ICP and PbtO2 was recorded every 30 min for a period of 4 hours.

[2] = tested on: rat diffuse traumatic brain injury model; test: ICP after diffuse traumatic brain injury plus hypoxia in the rat; type: in vivo; conditions: male Sprague Dawley rats, diffuse TBI + 15 min hypoxia
Method: Male Sprague Dawley rats were injured using a diffuse traumatic brain injury model, and then made hypoxic for a period of 15 minutes, before being ventilated on normal air. ICP was monitored using a Codman ICP pressure sensor for the ensuing 4 hours. After injury, ICP increased from a mean of 4.88±0.12 mm Hg to a mean of 9.23±0.28 mm Hg, an increase of 96%. Treatment with the NK1 antagonist, NAT, reduced ICP by a mean value 21%. […] Male Sprague Dawley rats were injured using the widely accepted diffuse traumatic brain injury model, and then made hypoxic for a period of 15 minutes, before being ventilated on normal air. ICP was monitored using a Codman ICP pressure sensor for the ensuing 4 hours. After injury, ICP increased from a mean of 4.88±0.12 mm Hg to a mean of 9.23±0.28 mm Hg, an increase of 96%. Treatment with the NK1 antagonist, NAT, reduced ICP by a mean value 21% (FIG. 6).

[3] = tested on: sheep model of diffuse traumatic brain injury; test: Intracranial pressure in the sheep model of diffuse traumatic brain injury; type: in vivo; conditions: administered at 30 min after injury
Method: Following traumatic injury, intracranial pressure was measured in the sheep using a standard neurosurgical “bolt” and pressure transducer (FIG. 3).
as §1
After injury, animals were stabilised and the heads restrained to the operating table to facilitate insertion of intracranial pressure (ICP) and brain tissue oxygenation (PbtO2) probes between 15 and 30 min after trauma. Following exposure of the skull, a 5.8 mm burr hole was performed at a point 4 cm lateral to the sagittal midline on the ipsilateral side, the dura matter opened and a calibrated Codman Microsensor ICP transducer inserted such that the tip of the sensor was 1.5 cm into the parenchyma of the left parietal lobe. The probe was attached to a Codman ICP Express monitoring system (Codman and Shurtleff Inc., USA) for digital recording.

[4] = tested on: rat model of traumatic brain injury; test: Diffusion weighted imaging of cerebral oedema after severe diffuse traumatic brain injury; type: in vivo; conditions: severe diffuse TBI, treatment 30 min after insult, 10^-5 mol/kg, imaged 5 h after injury
Excerpt: After a traumatic injury (left-hand panel), areas of hyperintensity reflect an increased ADC, which at this early time point is indicative of vasogenic edema.
In order to observe whether a substance P receptor antagonist could facilitate the movement of water out of the brain, we carried out nuclear magnetic resonance spectroscopy (NMR) studies using a rat model of traumatic brain injury. Diffusion-weighted NMR images were generated following trauma (FIG. 2, left-hand panel).
Following injury, a number of “brighter” areas are clearly visible within the brain. These “bright” areas correlate with regions where extracellular water is gathering within the brain.

[5] = tested on: blood brain barrier permeability after injury; test: Attenuation of blood brain barrier permeability after injury (dose finding); type: in vivo, rat; conditions: intravenous, 30 min after induction of injury
Method: N-acetyl-tryptophan was dissolved in sterile, normal saline, and administered by intravenous injection at 30 min after induction of injury. […] The optimal dose, based on the ability of the drug to attenuate blood brain barrier permeability after injury, was 2.5 mg/kg.

CC(=O)N[C@@H](Cc1c[nH]c2ccccc12)C(=O)O [N-acetyl-L-tryptophan]
expression of aquaporin-4 (perivascular AQP-4 channels) (aquaporin 4 (AQP-4)): rise in the expression of aquaporin-4 to, or indeed above, pre-injury levels
expression of aquaporin-4 (perivascular AQP-4 channels) (aquaporin 4 (AQP-4); listed as NAT): rapid restoration of AQP-4 channels
time for brain oxygen levels to be back to normal limits ([1]; NK1 receptor antagonist after injury): 3 to 4 h
effect on brain oxygen levels ([1]; administered at 30 min after injury, listed as N-Acetyl Tryptophan): Restores Oxygen Levels to Normal
effect on brain oxygen levels ([1]; administered at 30 min after injury, listed as NK1 antagonist): immediate improvement in brain oxygen status
effect on brain oxygen levels ([1]; administered at 30 min after injury, listed as NK1 receptor antagonist): oxygen levels start to rapidly recover
time after TBI by which brain oxygen values returned to normal (control) levels ([1]; administered at 30 min after injury, time after TBI): ≤ 4 h
functional outcome relative to vehicle treated controls [2]: significant improvement in functional outcome
mean reduction of ICP ([2]; ICP monitored 4 hours): 21%
effect on intracranial pressure (ICP) ([3]; listed as N-Acetyl Tryptophan): Reduces Intracranial Pressure
effect on intracranial pressure (ICP) ([3]; listed as NK1 antagonist): immediately decrease in ICP
time for ICP to return to normal (sham) levels after administration ([3]; listed as NK1 antagonist): 3 h
effect on intracranial pressure (ICP) ([3]; listed as NK1 receptor antagonist): ICP always fell
time for ICP to return to normal (sham) levels after administration ([3]; listed as NK receptor antagonist): 3 to 4 h
cerebral oedema (areas of hyperintensity / water gathering) on diffusion-weighted images [4]: no indication of any water gathering in these areas
cerebral oedema (areas of hyperintensity / water gathering) on diffusion-weighted images ([4]; listed as NK1 antagonist): clearly reduces areas of hyperintensity
optimal dose, based on ability to attenuate blood brain barrier permeability after injury [5]: 2.5 mg/kg
